According to EP1146866B1, “A METHOD FOR TREATING PATIENTS WITH ACNE BY ADMINISTERING A CYCLIC GMP PDE INHIBITOR” (priority 1999, dated 2000):

Legend:
PDE5 = PDE5 (Homo sapiens, UniProt O76074); assay: cGMP-specific PDE inhibition activity (3H cyclic GMP substrate); type: biochemical
Description: (§1) cGMP-specific phosphodiesterase activity can be determined using methods known in the art, such as a method using radioactive ^3H cyclic GMP (cyclic 3',5'-guanosine monophosphate) as the substrate for PDE5 enzyme (Thompson, W.J., Teraski, W.L., Epstein, P.M., Strada, S.J., Advances in Cyclic Nucleotide Research, 10:69-92, 1979. Using such techniques, the values of cGMP-specific inhibition set forth in Table 1 were determined for the compounds above: TABLE 1

PDE2 = PDE2 (Homo sapiens, UniProt O00408); assay: cGMP-stimulated PDE inhibition activity; type: biochemical
Description: as §1
cGMP phosphodiesterase activity can be determined using the methods referenced in Example 5, above. Using such techniques, the IC50 value for the inhibition of PDE2 by the compound of Example 1, exisulind, was determined as shown in Table 2.

acne vulgaris = assay: Clinical results with a patient with acne vulgaris; type: in vivo, human
Description: A patient with acne vulgaris was given a pharmaceutical composition containing 125 mg of a cGMP-specific PDE inhibitor, exisulind (the compound of Example 1), twice daily for 8 weeks. […] Since the patient was tolerating that daily dose quite well, their dose of exisulind was increased to 150 mg twice daily, for an additional 8 weeks.
The pharmaceutical formulation for the 150 mg-containing pharmaceutical composition taken by this patient contained exisulind (150 mg), lactose monohydrate (207 mg), croscarmellose sodium (15 mg), colloidal silicon dioxide (1 mg), magnesium stearate (6.3 mg), and sodium lauryl sulfate (0.7 mg) encapsulated in a # 1 gelatin capsule. The exisulind was obtained from Zambon Group, S.p.A., of Milan, Italy. The pharmaceutical formulation for the 125 mg containing composition was formulated with less exisulind, and more excipients to fill the capsule.

[1] = Clinical studies of exisulind for uses other than acne (tolerability); type: in vivo
Description: In studies with adult patients, patients with intact colons received exisulind at a dosage of 400 mg/day, and patients who had previously undergone a colectomy received exisulind at a dosage of 600 mg/day. In another study with adult patients, the patients received 500 mg/day of exisulind. In a study involving pediatric patients, the dosage of exisulind used ranged from 250 to 350 mg per day.
In these studies, exisulind is generally well tolerated in patients. […] The maximum tolerated dose (MTD) was determined to be 600 mg/day in patients with colectomies, and 400 mg/day in the group with intact colons. […] These elevations were completely reversible on stopping the drug. Additionally, after a patient with elevated liver enzymes stops receiving the drug for approximately one week, the patient can then safely resume treatment at the same or a lower therapeutic dose, i.e. the dosages mentioned above. The elevations seem to be dose related and have been seen mostly at doses above the maximum tolerated dose. […] Thirteen of those patients received exisulind for over three years.

Sequence of PDE2 (O00408 whole entry): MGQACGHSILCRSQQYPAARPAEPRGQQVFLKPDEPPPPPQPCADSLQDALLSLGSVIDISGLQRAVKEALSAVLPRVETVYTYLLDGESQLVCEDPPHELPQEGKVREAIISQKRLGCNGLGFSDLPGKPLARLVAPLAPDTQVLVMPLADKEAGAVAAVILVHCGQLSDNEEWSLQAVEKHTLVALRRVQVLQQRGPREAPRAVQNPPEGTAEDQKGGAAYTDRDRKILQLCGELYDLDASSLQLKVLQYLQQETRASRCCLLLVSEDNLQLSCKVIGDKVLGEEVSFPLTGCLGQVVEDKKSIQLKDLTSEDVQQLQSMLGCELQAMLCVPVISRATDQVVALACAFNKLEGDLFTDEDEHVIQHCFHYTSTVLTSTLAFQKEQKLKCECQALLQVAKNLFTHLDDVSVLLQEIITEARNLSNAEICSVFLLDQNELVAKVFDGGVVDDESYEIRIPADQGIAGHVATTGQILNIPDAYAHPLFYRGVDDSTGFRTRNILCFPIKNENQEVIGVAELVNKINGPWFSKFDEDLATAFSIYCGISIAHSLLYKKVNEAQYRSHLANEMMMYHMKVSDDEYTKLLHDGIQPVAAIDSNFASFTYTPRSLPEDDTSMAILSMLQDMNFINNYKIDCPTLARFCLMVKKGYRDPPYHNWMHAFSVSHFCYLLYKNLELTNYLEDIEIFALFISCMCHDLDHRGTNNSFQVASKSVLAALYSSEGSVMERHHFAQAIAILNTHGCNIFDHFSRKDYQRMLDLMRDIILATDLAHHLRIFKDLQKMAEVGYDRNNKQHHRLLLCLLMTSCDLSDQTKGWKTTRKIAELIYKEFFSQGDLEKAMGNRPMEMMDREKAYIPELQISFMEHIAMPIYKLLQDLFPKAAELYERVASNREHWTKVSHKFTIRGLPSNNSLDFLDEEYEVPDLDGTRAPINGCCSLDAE

inhibition at 10 µM (PDE5)	Structure (SMILES)	IC50 (PDE2)	patient's acne (acne vulgaris; 150 mg twice daily for an additional 8 weeks, end of second 8-week period)	adverse side effects reported by patient (acne vulgaris; after 125 mg then 150 mg twice daily, 8 weeks each)	manifestations of acne during continued treatment (acne vulgaris; continued on drug for six months)	patient's acne (intensity) (acne vulgaris; patient, 125 mg twice daily for 8 weeks)	maximum tolerated dose (MTD) ([1]; group with intact colons)	liver function tests ([1]; human, in vivo)	side effects in clinical studies ([1]; human, in vivo)	side effects on extended treatment ([1]; human, in vivo)	maximum tolerated dose (MTD) ([1]; patients with colectomies)
50%	COC(=O)CC1=C(C)/C(=C/c2ccc(S(C)(=O)=O)cc2)c2ccc(F)cc21 [Example 2, α-(1-p-Methylsulfonylbenzylidene)-2-Methyl-5-Fluoro-3-Indenyl -Acetic Acid Methyl Ester]	–	–	–	–	–	–	–	–	–	–
80%	CC1=C(CCO)c2cc(F)ccc2/C1=C\c1ccc(S(C)(=O)=O)cc1 [Example 3, (Z)-5-Fluoro-2-Methyl-1-(4-Methylsulfonylbenzylidene)-1H-3-Indenyl-(2-Hydroxy) Ethane]	–	–	–	–	–	–	–	–	–	–

Structure (SMILES)	inhibition at 10 µM (PDE5)	IC50 (PDE2)	patient's acne (acne vulgaris; 150 mg twice daily for an additional 8 weeks, end of second 8-week period)	adverse side effects reported by patient (acne vulgaris; after 125 mg then 150 mg twice daily, 8 weeks each)	manifestations of acne during continued treatment (acne vulgaris; continued on drug for six months)	patient's acne (intensity) (acne vulgaris; patient, 125 mg twice daily for 8 weeks)	maximum tolerated dose (MTD) ([1]; group with intact colons)	liver function tests ([1]; human, in vivo)	side effects in clinical studies ([1]; human, in vivo)	side effects on extended treatment ([1]; human, in vivo)	maximum tolerated dose (MTD) ([1]; patients with colectomies)
CC1=C(CC(=O)O)c2cc(F)ccc2/C1=C\c1ccc(S(C)(=O)=O)cc1 [Example 1, α-(1-p-Methylsulfonylbenzylidene)-2-Methyl-5-Fluoro-3-Indenyl-Acetic Acid]	39%	300 µM	disappeared completely	no adverse side effects	without any significant manifestations of acne	decrease noticeably in intensity	400 mg/day	moderate, reversible, asymptomatic elevation in liver function tests	no clinically relevant side effects reported	no such clinically significant side effects	600 mg/day
